Results taken from patent US11629143B2, “HipK4 inhibitors and uses thereof” (Vibliome Therapeutics, LLC, priority 2020, dated 2023).

What was measured:
Experiment in all cases: Kinase panel (mobility shift)
Type in all cases: biochemical
[1] = molecular target: T1, MUSK (Homo sapiens, UniProt O15146)
T1 sequence (O15146 24-869): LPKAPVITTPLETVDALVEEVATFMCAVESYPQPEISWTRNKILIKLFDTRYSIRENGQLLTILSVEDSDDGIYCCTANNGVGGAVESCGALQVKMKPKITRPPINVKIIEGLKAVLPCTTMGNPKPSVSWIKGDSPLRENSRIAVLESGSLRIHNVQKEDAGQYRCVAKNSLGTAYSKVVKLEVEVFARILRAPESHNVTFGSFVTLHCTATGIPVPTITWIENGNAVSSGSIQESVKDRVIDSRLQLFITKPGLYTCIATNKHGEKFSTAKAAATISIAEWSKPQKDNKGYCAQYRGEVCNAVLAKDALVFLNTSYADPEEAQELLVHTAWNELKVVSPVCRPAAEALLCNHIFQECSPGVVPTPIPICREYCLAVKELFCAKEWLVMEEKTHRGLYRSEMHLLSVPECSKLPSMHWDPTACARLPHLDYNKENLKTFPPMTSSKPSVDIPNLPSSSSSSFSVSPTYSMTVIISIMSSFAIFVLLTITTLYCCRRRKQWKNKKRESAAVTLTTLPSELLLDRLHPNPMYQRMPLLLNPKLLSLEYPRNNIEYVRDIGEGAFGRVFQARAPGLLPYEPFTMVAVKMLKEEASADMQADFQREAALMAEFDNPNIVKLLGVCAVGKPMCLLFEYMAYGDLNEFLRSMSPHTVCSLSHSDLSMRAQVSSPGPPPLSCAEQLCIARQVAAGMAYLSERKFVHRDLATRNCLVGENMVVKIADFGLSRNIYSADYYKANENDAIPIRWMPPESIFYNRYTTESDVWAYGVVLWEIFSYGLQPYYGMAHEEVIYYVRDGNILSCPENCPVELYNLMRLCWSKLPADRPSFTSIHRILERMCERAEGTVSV
Method: (§1) The disclosed compounds were tested for activity against a panel of 299 kinases. The target enzyme was incubated with fluorescently labeled substrate and test compounds in a standardized reaction mixture in 384 well plates. Upon termination of the reaction, samples were introduced onto microfluidic chips. The samples migrated through channels in the chips and product and substrate were separated based on the difference in their charge (electrophoretic mobility shift). Enzyme activity was measured by direct comparison of the fluorescence in the product and substrate peaks. […] In the tables A=95% or greater at 5 um, B=90%-94% at 5 um, and C=80%-89% at 5 um. [note to draft: we included category D for 50-79 and category E is less than 50%. Feel free to remove if not needed)

[2] = molecular target: LCK (Homo sapiens, UniProt P06239)
Sequence of LCK (P06239 whole entry, species assumed): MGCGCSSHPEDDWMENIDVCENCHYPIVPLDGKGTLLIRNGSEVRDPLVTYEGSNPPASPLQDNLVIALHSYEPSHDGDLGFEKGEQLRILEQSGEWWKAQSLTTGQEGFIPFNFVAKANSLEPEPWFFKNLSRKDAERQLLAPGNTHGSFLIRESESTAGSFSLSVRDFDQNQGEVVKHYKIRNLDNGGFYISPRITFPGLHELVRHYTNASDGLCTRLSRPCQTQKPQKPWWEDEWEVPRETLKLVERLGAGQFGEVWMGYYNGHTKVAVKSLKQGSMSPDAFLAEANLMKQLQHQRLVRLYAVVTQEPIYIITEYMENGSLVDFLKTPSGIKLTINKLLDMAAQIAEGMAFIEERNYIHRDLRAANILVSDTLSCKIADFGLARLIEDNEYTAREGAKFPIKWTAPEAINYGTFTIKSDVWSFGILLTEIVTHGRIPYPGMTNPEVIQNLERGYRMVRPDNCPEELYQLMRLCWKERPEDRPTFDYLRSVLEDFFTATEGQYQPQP
Method: as §1

[3] = molecular target: T2, MER (Homo sapiens, UniProt Q12866)
T2 sequence (Q12866 21-999): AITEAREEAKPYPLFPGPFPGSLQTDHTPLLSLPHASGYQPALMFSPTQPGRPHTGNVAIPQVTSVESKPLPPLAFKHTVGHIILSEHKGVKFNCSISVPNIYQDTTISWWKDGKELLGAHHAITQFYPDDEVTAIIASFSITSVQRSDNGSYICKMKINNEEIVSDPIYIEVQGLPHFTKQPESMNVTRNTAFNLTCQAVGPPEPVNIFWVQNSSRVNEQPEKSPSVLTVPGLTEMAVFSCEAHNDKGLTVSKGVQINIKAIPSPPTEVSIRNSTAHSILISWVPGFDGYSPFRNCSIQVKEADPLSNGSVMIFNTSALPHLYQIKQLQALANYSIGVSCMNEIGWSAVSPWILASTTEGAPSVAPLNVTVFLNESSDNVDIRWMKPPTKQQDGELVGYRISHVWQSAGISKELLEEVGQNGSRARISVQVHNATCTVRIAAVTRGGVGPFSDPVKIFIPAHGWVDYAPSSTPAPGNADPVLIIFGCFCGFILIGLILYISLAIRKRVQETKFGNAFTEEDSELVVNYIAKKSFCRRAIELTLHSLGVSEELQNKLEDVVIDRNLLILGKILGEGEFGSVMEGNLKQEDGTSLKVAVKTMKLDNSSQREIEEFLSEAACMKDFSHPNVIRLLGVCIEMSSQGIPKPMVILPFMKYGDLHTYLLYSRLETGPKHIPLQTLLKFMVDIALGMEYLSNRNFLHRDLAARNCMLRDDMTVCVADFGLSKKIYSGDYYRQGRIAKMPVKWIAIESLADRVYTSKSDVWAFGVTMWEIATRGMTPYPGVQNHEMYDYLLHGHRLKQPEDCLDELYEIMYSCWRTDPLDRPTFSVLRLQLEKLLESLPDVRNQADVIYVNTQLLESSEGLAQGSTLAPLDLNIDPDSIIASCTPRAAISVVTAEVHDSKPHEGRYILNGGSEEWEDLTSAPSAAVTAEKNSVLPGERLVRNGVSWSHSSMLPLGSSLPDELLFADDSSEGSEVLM
Method: as §1

[4] = molecular target: EPH-A4 (Homo sapiens, UniProt P54764)
Sequence of EPH-A4 (P54764 20-986, species assumed): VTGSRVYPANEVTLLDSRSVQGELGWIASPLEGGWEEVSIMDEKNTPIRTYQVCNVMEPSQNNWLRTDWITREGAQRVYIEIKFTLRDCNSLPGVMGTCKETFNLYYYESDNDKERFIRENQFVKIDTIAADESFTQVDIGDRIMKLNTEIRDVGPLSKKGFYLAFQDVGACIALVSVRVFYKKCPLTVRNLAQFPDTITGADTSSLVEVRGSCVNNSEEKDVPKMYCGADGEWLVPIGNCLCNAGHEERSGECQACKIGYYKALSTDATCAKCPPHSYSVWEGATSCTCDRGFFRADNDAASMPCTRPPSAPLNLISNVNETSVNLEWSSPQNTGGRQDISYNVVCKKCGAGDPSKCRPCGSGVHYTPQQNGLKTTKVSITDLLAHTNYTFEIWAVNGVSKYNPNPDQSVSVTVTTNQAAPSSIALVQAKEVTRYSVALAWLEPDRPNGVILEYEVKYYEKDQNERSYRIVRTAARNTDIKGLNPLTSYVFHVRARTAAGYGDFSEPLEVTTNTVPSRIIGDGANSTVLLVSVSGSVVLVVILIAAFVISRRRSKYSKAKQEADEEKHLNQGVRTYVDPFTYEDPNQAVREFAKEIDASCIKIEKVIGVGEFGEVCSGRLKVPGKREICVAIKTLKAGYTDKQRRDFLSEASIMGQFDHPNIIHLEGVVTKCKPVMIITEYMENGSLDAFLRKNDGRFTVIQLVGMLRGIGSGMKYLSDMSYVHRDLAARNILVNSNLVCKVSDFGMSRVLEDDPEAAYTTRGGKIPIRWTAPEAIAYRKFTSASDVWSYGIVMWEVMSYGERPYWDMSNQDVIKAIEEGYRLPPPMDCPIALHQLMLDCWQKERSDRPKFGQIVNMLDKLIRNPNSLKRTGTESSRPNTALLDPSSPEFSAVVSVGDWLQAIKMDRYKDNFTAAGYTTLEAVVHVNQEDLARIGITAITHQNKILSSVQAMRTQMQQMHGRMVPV
Method: as §1

[5] = molecular target: SRC (Homo sapiens, UniProt P12931)
Sequence of SRC (P12931 whole entry, species assumed): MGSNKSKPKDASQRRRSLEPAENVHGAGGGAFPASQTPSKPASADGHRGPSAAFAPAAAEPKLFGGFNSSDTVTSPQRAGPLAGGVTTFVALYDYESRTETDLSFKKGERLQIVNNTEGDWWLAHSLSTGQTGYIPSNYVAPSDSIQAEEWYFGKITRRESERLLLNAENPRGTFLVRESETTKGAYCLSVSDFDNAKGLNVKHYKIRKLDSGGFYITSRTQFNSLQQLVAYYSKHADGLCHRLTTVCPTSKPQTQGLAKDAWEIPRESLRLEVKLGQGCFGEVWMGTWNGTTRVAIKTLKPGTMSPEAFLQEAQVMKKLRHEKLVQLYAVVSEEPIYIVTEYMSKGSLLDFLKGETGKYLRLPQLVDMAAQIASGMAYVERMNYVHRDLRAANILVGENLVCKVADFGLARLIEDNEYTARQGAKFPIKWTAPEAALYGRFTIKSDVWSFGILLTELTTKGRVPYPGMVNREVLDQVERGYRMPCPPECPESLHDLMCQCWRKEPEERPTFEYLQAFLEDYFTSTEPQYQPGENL
Method: as §1

[6] = molecular target: TRKB (Homo sapiens, UniProt Q16620)
Sequence of TRKB (Q16620 32-822, species assumed): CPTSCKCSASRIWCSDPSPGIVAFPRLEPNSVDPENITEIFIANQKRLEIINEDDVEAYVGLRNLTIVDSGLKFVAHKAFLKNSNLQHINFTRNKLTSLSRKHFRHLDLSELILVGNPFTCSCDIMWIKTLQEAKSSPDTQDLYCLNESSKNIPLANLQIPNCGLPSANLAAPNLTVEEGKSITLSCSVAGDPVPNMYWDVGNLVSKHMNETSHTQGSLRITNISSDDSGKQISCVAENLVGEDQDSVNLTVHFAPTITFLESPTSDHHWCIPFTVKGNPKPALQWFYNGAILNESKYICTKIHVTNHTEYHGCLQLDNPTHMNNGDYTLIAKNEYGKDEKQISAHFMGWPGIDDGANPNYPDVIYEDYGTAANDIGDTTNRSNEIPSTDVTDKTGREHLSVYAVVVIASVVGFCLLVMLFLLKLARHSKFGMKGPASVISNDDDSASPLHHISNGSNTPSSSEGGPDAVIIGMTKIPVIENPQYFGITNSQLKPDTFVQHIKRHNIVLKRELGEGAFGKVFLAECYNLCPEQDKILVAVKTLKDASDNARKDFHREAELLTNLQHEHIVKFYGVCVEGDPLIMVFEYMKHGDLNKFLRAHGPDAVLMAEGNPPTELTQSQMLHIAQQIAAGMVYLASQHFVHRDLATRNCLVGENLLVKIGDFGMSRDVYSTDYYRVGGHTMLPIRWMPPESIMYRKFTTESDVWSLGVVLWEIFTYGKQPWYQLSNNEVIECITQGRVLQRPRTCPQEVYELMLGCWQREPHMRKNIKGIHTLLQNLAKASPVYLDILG
Method: as §1

[7] = molecular target: PDGFR-a (Homo sapiens, UniProt P16234)
Sequence of PDGFR-a (P16234 24-1089, species assumed): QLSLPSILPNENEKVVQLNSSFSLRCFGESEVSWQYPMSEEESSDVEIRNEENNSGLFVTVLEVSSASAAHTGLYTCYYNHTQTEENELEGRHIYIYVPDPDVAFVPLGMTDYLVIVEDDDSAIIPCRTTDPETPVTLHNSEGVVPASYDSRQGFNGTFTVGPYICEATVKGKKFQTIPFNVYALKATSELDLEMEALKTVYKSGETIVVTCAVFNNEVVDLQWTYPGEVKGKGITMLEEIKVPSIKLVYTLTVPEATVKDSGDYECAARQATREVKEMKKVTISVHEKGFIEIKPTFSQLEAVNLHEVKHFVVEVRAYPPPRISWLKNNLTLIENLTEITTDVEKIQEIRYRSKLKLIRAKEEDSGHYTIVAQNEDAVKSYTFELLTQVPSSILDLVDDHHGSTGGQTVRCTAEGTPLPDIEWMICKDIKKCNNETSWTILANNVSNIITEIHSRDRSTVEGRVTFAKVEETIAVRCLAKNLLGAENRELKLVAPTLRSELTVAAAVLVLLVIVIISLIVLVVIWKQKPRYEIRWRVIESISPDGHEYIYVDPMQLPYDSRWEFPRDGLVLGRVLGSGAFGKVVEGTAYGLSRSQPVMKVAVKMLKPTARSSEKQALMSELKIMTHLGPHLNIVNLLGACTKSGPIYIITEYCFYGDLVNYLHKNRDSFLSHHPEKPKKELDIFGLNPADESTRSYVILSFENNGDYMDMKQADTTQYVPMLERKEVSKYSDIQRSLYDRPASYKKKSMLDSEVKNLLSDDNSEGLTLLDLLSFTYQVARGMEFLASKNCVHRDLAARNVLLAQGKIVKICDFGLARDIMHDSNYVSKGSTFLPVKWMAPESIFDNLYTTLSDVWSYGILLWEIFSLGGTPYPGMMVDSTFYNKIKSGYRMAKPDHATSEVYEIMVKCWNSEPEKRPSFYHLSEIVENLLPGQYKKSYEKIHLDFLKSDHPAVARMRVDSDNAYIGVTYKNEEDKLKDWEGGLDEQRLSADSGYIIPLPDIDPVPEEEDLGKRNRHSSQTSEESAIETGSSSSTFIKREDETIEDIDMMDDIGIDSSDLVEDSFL
Method: as §1

SMILES	inhibition at 5 µM [1]	inhibition at 5 µM [2]	inhibition at 5 µM [3]	inhibition at 5 µM [4]	inhibition at 5 µM [5]	inhibition at 5 µM [6]	inhibition at 5 µM [7]
CNC(=O)c1cc(Oc2ccc(NC(=O)c3nc(NC)sc3-c3ccc(F)cc3F)cc2F)ccn1 [Compound 21]	< 50%	< 50%	< 50%	< 50%	< 50%	50 to 79%	< 50%
CNC(=O)c1cc(Oc2ccc(NC(=O)c3nc(SC)oc3-c3ccc(Cl)s3)cc2)ccn1 [Compound 5]	< 50%	50 to 79%	< 50%	< 50%	< 50%	< 50%	< 50%
CNC(=O)c1cc(Oc2ccc(NC(=O)c3nc(COC)oc3-c3ccc(F)cc3)cc2F)ccn1 [Compound 30]	80 to 89%	80 to 89%	80 to 89%	90 to 94%	50 to 79%	80 to 89%	50 to 79%
CSc1nc(C(=O)Nc2ccc(Oc3ccnc(N)c3Cl)c(F)c2)c(-c2ccc(F)cc2)o1 [Compound 1]	< 50%	< 50%	< 50%	< 50%	< 50%	< 50%	< 50%
CSc1nc(C(=O)Nc2ccc(Oc3ccnc(-c4cnn(C)c4)c3)c(F)c2)c(-c2ccc(F)cc2)o1 [Compound 11]	50 to 79%	90 to 94%	90 to 94%	90 to 94%	50 to 79%	50 to 79%	90 to 94%
CNC(=O)c1cc(Oc2ccc(NC(=O)c3nc(NC)sc3-c3ccc(F)cc3C)cc2F)ccn1 [Compound 23]	< 50%	80 to 89%	50 to 79%	50 to 79%	< 50%	80 to 89%	< 50%
CNC(=O)c1cc(Oc2ccc(NC(=O)c3nc(OC)oc3-c3ccc(F)cc3)cc2F)ccn1 [Compound 15]	< 50%	50 to 79%	50 to 79%	50 to 79%	< 50%	50 to 79%	50 to 79%
CNC(=O)c1cc(Oc2ccc(NC(=O)c3nc(SC)oc3-c3ccc(F)c(F)c3)cc2)ccn1 [Compound 4]	< 50%	80 to 89%	50 to 79%	< 50%	< 50%	< 50%	< 50%
CNC(=O)c1cc(Oc2ccc(NC(=O)c3nc(SC)oc3-c3ccc(OC)cc3)cc2)ccn1 [Compound 7]	< 50%	≥ 95%	< 50%	< 50%	< 50%	< 50%	< 50%

Further lines, results first:

inhibition at 5 µM [1]	inhibition at 5 µM [2]	inhibition at 5 µM [3]	inhibition at 5 µM [4]	inhibition at 5 µM [5]	inhibition at 5 µM [6]	inhibition at 5 µM [7]	SMILES
< 50%	80 to 89%	90 to 94%	90 to 94%	80 to 89%	50 to 79%	< 50%	CNC(=O)c1cc(Oc2ccc(NC(=O)c3nc(SC(C)C)oc3-c3ccc(F)cc3)cc2F)ccn1 [Compound 34]
< 50%	< 50%	< 50%	< 50%	< 50%	< 50%	< 50%	CSc1nc(C(=O)Nc2ccc(Oc3ccnc(C(=O)NC4COC4)c3)c(F)c2)c(-c2ccc(F)s2)o1 [Compound 28]
< 50%	< 50%	< 50%	< 50%	< 50%	< 50%	< 50%	COc1nc(C(=O)Nc2ccc(Oc3ccnc(C(=O)NC4COC4)c3)c(F)c2)c(-c2ccc(F)cc2)o1 [Compound 39]
< 50%	< 50%	< 50%	< 50%	< 50%	< 50%	< 50%	CSc1nc(C(=O)Nc2ccc(Oc3ccnc(C(=O)NC4COC4)c3)c(F)c2)c(-c2ccc(F)cc2)o1 [Compound 31]
< 50%	< 50%	< 50%	< 50%	< 50%	< 50%	< 50%	CNC(=O)c1cc(Oc2ccc(NC(=O)c3nc(OC)oc3-c3ccc(F)s3)cc2F)ccn1 [Compound 25]
< 50%	50 to 79%	< 50%	< 50%	< 50%	< 50%	< 50%	[2H]C([2H])([2H])NC(=O)c1cc(Oc2ccc(NC(=O)c3nc(SC)oc3-c3ccc(F)c(F)c3)cc2F)ccn1 [Compound 33]
80 to 89%	90 to 94%	80 to 89%	80 to 89%	50 to 79%	50 to 79%	50 to 79%	CNC(=O)c1cc(Oc2ccc(NC(=O)c3nc(C4CC4)oc3-c3ccc(F)cc3)cc2F)ccn1 [Compound 26]
< 50%	< 50%	< 50%	< 50%	< 50%	50 to 79%	< 50%	CNC(=O)c1cc(Oc2ccc(NC(=O)c3nc(NC)oc3-c3ccc(F)s3)cc2F)ccn1 [Compound 17]
< 50%	< 50%	< 50%	< 50%	< 50%	< 50%	< 50%	CSc1nc(C(=O)Nc2ccc(Oc3ccnc(C(=O)NC4CNC4)c3)c(F)c2)c(-c2ccc(F)s2)o1 [Compound 27]
